Patent US4769364A, “Pyrimidin-5-yl phosphoric acid ester and thionophosphoric acid ester pesticides” (priority 1985, dated 1988)

What was measured:
[1] = test system: Diabrotica balteata larvae; experiment: Critical concentration test/soil insects: Diabrotica balteata larvae in the soil; assay type: in vivo; settings: 168 h, 2.5 ppm active compound in soil, after a further 7 days, 100% = all test insects killed, read-out: degree of effectiveness
Method: (§1) Critical concentration test/soil insects
Test insect: Diabrotica balteata larvae in the soil
(§2) Solvent: 3 parts by weight of acetone
(§3) Emulsifier: 1 part by weight of alkylaryl polyglycol ether.
(§4) To produce a suitable preparation of active compound, 1 part by weight of active compound is mixed with the stated amount of solvent, the stated amount of emulsifier is added and the concentrate is diluted with water to the desired concentration.
(§5) The preparation of active compound is intimately mixed with soil. The concentration of the active compound in the preparation is of practically no importance, only the amount by weight of active compound per unit volume of soil, which is given in ppm (=mg/liter) being decisive. The soil is filled into 0.5 liter pots and these are left to stand at 20° C.
Immediately after setting up the test, 6 pregerminated grains of corn are placed in each pot. After 2 days, the corresponding test insects are introduced into the treated soil. After a further 7 days the degree of effectiveness of the active compound is determined in % by counting the dead and live test insects. The degree of effectiveness is 100% if all the test insects have been killed and is 0% if just as many test insects are still alive as in the case of the untreated control.

Phorbia antiqua maggots = experiment: Critical concentration test/soil insects: Phorbia antiqua maggots (in the soil); assay type: in vivo; settings: 2.5 ppm active compound in soil; 2 to 7 days; 100% = all test insects killed
Method: as §1
Test insect: Phorbia antiqua maggots (in the soil)
as §2
Emulsifier: 1 part by weight alkylaryl polyglycol ether.
as §4
as §5, with “into” for “into 0.5 liter”, “the pots” for “these”, “room temperature.” for “20° C.”
After 24 hours, the test insects are introduced into the treated soil, and after a further 2 to 7 days the degree of effectiveness of the active compound is determined in % by counting the dead and live test insects. The degree of effeciveness is 100% if all the test insects have been killed and is 0% if just as many test insects are still alive as in the case of the untreated control.

Meloidogyne incognita = experiment: Critical concentration test/nematodes: Meloidogyne incognita; assay type: in vivo; settings: 20 ppm active compound in soil; lettuce, four weeks, 27° C.; 100% = infestation completely avoided
Method: Critical concentraion test/nematodes
Test nematode: Meloidogyne incognita
as §2, §3, §4
The preparation of active compound is intimately mixed with soil which is heavily infested with the test nematodes. The concentration of the active compound in the preparation is of practically no importance, only the amount of active compound per unit volume of soil, which is given in ppm, being decisive. The treated soil is filled into pots, lettuce is sown in and the pots are kept at a greenhouse temperature of 27° C.
After four weeks, the lettuce roots are examined for infestation with nematodes (root galls), and the degree of effectiveness of the active compound is determined in %. The degree of effectiveness is 100% if infestation is completely avoided and is 0% if the infestation is just as high as in the case of the control plants in untreated soil which has been infested in the same manner.

[2] = Toxicity to warm-blooded animals, LD50 on rats (oral); settings: rat, in vivo, oral (stomach tube), dissolved in polyethylene glycol LUTROL
Method: Toxicity to warm-blooded animals, LD50 values on rats (oral)
The values were determined in the customary manner. The active compounds were dissolved in polyethylene glycol LUTROL (trademark of BASF AG, Ludwigshafen, Federal Republic of Germany) and the solution was administered to rats with a stomach tube.

[3] = test system: Lucilia cuprina OP res. larvae; experiment: Test with Lucilia cuprina OP res. larvae; assay type: in vivo; settings: 10 ppm active compound, 24 hours, read-out: destruction
Method: Test with Lucilia cuprina OP res. larvae
35 parts by weight of ethylene glycol monoethyl ether
35 parts by weight of nonylphenol polyglycol ether.
To produce a suitable preparation of active compound, three parts by weight of active compound are mixed with seven parts by weight of the abovementioned solvent mixture and the concentrate thus obtained is diluted with water to the particular desired concentration.
About 20 Lucilia cuprina res. larvae are introduced into a test tube which contains approx. 1 cm^2 of horse muscle and 0.5 ml of the preparation of active compound. After 24 hours, the degree of destruction is determined.

Psoroptes ovis = experiment: Test with Psoroptes ovis; assay type: in vivo; settings: 10 ppm active compound, 24 hours, read-out: destruction
Method: 35 parts by weight of ethylene glycol monomethyl ether
35 parts by weight of nonylphenol polyglycol ether
To produce a suitable preparation of active compound, three parts by weight of active compound are mixed with seven parts by weight of the abovementioned solvent mixture and the concentrate thus obtained is diluted with water to the desired concentration.
About 10-25 Psoroptes ovis are introduced into 1 ml of the active compound preparation to be tested, this having been pipetted into tablet nests of a deep-drawn package. After 24 hours, the degree of destruction is determined.

| SMILES | mortality at 2.5 ppm [1] | degree of effectiveness (Phorbia antiqua maggots) | degree of effectiveness (Meloidogyne incognita) | LD50 [2] | mortality at 10 ppm [3] | mortality at 10 ppm (Psoroptes ovis) |
| --- | --- | --- | --- | --- | --- | --- |
| CCOP(=S)(OCC)Oc1cnc(C(C)(C)C)nc1 [Comparison compound (A), reference compound] | 100% | 100% | 100% | 1 to 2.5 mg/kg |  |  |
| CCOP(=S)(OCC(F)(F)F)Oc1cnc(C(C)(C)C)nc1 (stereo not shown) [Example 1, O-ethyl O-(2,2,2-trifluoroethyl) O-(2-tert.-butyl-pyrimidin-5-yl)thionophosphate] | 100% | 95% | 95% | 100 to 250 mg/kg |  |  |
| CCOP(=S)(OCC(F)(F)C(F)F)Oc1cnc(C(C)(C)C)nc1 (stereo not shown) [Example 2] | 100% | 100% | 100% | 50 mg/kg | 100% | 100% |
| CCCOP(=S)(OCC)Oc1cnc(C(C)C)nc1 (stereo not shown) [known compound (B), reference compound] |  | 100% | 95% |  |  |  |
